According to patent EP4663639A1, “SALT AND CRYSTAL OF MNK INHIBITOR COMPOUND AND PREPARATION METHOD THEREFOR” (Novostar Pharmaceuticals, Ltd., priority 2023, dated 2024):
One block for each compound: values may come before it.

Legend:
Format in all cases: physicochemical
[1] = Storage stability of crystals at different temperatures, airtight (HPLC purity, XRPD crystal form)
Experimental: 10 mg polymorph I of compound 1 obtained in Comparative Example 1 and polymorph A of sulfate salt obtained in Example 1 were placed in an airtight environment and stored at 2~8 °C, 25 °C and 60 °C for 1 week and 2 weeks, respectively, and then samples were taken to examine the chemical purity of the samples by HPLC and the crystal morphology of the samples by XRPD. Table 11 Evaluation of storage properties of crystals at different temperatures

[2] = Solubility in buffers and water (HPLC of supernatant)
Experimental: Polymorph I of compound 1 obtained in Comparative Example 1, and sulfate polymorph A obtained in Example 1 were weighed in a sample vial, to which 1 mL of hydrochloric acid buffer solution at pH=1.2, acetate buffer solution at pH=4.5, phosphate buffer solution at pH=6.8, and water were added, respectively. The suspension was magnetically stirred at 25°C (1000 r/min).

[3] = Temperature and humidity stability, open storage (HPLC purity, XRPD crystal form)
Experimental: The sulfate polymorph A obtained in Example 1 was placed openly under conditions of 25°C/92.5% RH, 25°C/60% RH and 40°C/75% RH to test the temperature and humidity stability. After the samples were stored for 1 week and 4 weeks, respectively, the purity of the samples was tested by HPLC, and the crystalline morphology of the samples was detected by XRPD.
The XRPD results of sulfate polymorph A after 1 and 4 weeks of storage at 25°C/92.5% RH, 25°C/60% RH and 40°C/75% RH are shown in Figures 14 and 15. Table 12 Stability assessment of sulfate polymorph A at different temperatures and humidities

[4] = Moisture adsorption-desorption by DVS; details: 25 °C
Experimental: The moisture adsorption-desorption properties of sulfate polymorph A obtained according to Example 1 were examined by DVS. 16 mg of sulfate polymorph A was placed in a metal container, which was placed in an Intrinsic DVS apparatus. A cyclic humidity gradient of 40-95-0-40% RH was set at 25 °C, and the samples were subjected to two successive adsorption-desorption cycles. At each stage, the following equilibrium criteria were used: mass change dm/dt < 0.002% over 5 min, with minimum and maximum equilibrium times of 60 min and 360 min, respectively, at each stage. Table 13 Dynamic water adsorption experiments for sulfate polymorph A

[5] = acetate buffer solution pH 4.5, 25°C, 24 h
[6] = hydrochloric acid buffer solution pH 1.2, 25°C, 24 h
[7] = phosphate buffer solution pH 6.8, 25°C, 24 h
[8] = 25°C/60%RH for four weeks, open
[9] = 25°C/92.5% RH for four weeks, open
[10] = 25°C/92.5% RH for one week, open
[11] = 40°C/75% RH for four weeks, open

crystal structure (XRPD) after storage ([1]; 2 weeks at high temperature (60 °C)): the crystal structure changed
crystal structure (XRPD) after storage ([1]; 2 weeks at low temperature (2-8 °C) or room temperature (25 °C)): did not change significantly
Purity (%) ([1]; Initial): 97.4%
the amount of aromatic hydrocarbons (%) ([1]; Initial): 1.6%
Purity (%) ([1]; One week, 2~8 °C, airtight): 97.6%
the amount of aromatic hydrocarbons (%) ([1]; One week, 2~8 °C, airtight): 1.4%
Purity (%) ([1]; One week, 25 °C, airtight): 97.6%
the amount of aromatic hydrocarbons (%) ([1]; One week, 25 °C, airtight): 1.4%
Purity (%) ([1]; One week, 60 °C, airtight): 96.6%
the amount of aromatic hydrocarbons (%) ([1]; One week, 60 °C, airtight): 2.4%
Purity (%) ([1]; Two weeks, 2~8 °C, airtight): 97.5%
the amount of aromatic hydrocarbons (%) ([1]; Two weeks, 2~8 °C, airtight): 1.5%
Purity (%) ([1]; Two weeks, 25 °C, airtight): 97.4%
the amount of aromatic hydrocarbons (%) ([1]; Two weeks, 25 °C, airtight): 1.6%
Purity (%) ([1]; Two weeks, 60 °C, airtight): 96.3%
the amount of aromatic hydrocarbons (%) ([1]; Two weeks, 60 °C, airtight): 2.7%
Solubility (μg/mL) [2, 5]: Not detected
pH of the solution after solvation saturation has been reached [2, 5]: 3.5
Solubility [2, 6]: 0.0187 mg/mL
pH of the solution after solvation saturation has been reached [2, 6]: 1.0
Solubility (μg/mL) [2, 7]: Not detected
pH of the solution after solvation saturation has been reached [2, 7]: 6.4
Solubility (μg/mL) ([2]; water, 25°C, 24 h): Not detected
pH of the solution after solvation saturation has been reached ([2]; water, 25°C, 24 h): 6.4
Compound: N-(12'-methyl-1',5'-dioxo-1',5',6 ',11'-tetrahydro-2'H-spiro[cyclohexane-1,3'-imidazo[1,5':1,6]pyrido[3,4-b][ 1,6]naphthyridin]-8'-yl)cyclopropane carboxamide [polymorph I of Compound 1]

Aromatic content (%) ([3]; 25°C/60% RH for one week, open): 1.0%
Purity (%) ([3]; 25°C/60% RH for one week, open): 98.1%
Aromatic content (%) [3, 8]: 1.0%
Purity (%) [3, 8]: 98.1%
Aromatic content (%) [3, 9]: 1.2%
Purity (%) [3, 9]: 97.8%
Aromatic content (%) [3, 10]: 1.0%
Purity (%) [3, 10]: 98.1%
Aromatic content (%) [3, 11]: 1.1%
Purity (%) [3, 11]: 97.9%
Aromatic content (%) ([3]; 40°C/75% RH for one week, open): 1.0%
Purity (%) ([3]; 40°C/75% RH for one week, open): 98.1%
Aromatic content (%) ([3]; Initial): 1.0%
Purity (%) ([3]; Initial): 98.1%
structural stability (purity and XRPD) on storage ([3]; different humidity and temperature conditions, 1 and 4 weeks): high structural stability
hygroscopicity ([4]; 0%RH-95%RH): slightly hygroscopic
moisture absorbed ([4]; range 0%RH-95%RH): 1.2%
1st Desorption Mass change (%) ([4]; Relative humidity 0 %): -0.574%
2nd Adsorption Mass change (%) ([4]; Relative humidity 0 %): -0.574%
1st Desorption Mass change (%) ([4]; Relative humidity 10 %): -0.344%
2nd Adsorption Mass change (%) ([4]; Relative humidity 10 %): -0.368%
1st Desorption Mass change (%) ([4]; Relative humidity 20 %): -0.210%
2nd Adsorption Mass change (%) ([4]; Relative humidity 20 %): -0.246%
1st Desorption Mass change (%) ([4]; Relative humidity 30 %): -0.084%
2nd Adsorption Mass change (%) ([4]; Relative humidity 30 %): -0.133%
1st Adsorption Mass change (%) ([4]; Relative humidity 40 %): 0.000%
1st Desorption Mass change (%) ([4]; Relative humidity 40 %): 0.081%
2nd Adsorption Mass change (%) ([4]; Relative humidity 40 %): -0.017%
1st Adsorption Mass change (%) ([4]; Relative humidity 50 %): 0.085%
1st Desorption Mass change (%) ([4]; Relative humidity 50 %): 0.178%
1st Adsorption Mass change (%) ([4]; Relative humidity 60 %): 0.174%
1st Desorption Mass change (%) ([4]; Relative humidity 60 %): 0.253%
1st Adsorption Mass change (%) ([4]; Relative humidity 70 %): 0.260%
1st Desorption Mass change (%) ([4]; Relative humidity 70 %): 0.327%
1st Adsorption Mass change (%) ([4]; Relative humidity 80 %): 0.357%
1st Desorption Mass change (%) ([4]; Relative humidity 80 %): 0.418%
1st Adsorption Mass change (%) ([4]; Relative humidity 90 %): 0.497%
1st Desorption Mass change (%) ([4]; Relative humidity 90 %): 0.589%
1st Adsorption Mass change (%) ([4]; Relative humidity 95 %): 0.604%
1st Desorption Mass change (%) ([4]; Relative humidity 95 %): 0.604%
crystal structure (XRPD) after storage ([1]; 1 week and 2 weeks at 2~8 °C, 25 °C and 60 °C): did not undergo significant changes
Purity (%) ([1]; Initial): 97.5%
the amount of aromatic hydrocarbons (%) ([1]; Initial): 1.5%
Purity (%) ([1]; One week, 2~8 °C, airtight): 97.5%
the amount of aromatic hydrocarbons (%) ([1]; One week, 2~8 °C, airtight): 1.5%
Purity (%) ([1]; One week, 25 °C, airtight): 97.4%
the amount of aromatic hydrocarbons (%) ([1]; One week, 25 °C, airtight): 1.5%
Purity (%) ([1]; One week, 60 °C, airtight): 97.3%
the amount of aromatic hydrocarbons (%) ([1]; One week, 60 °C, airtight): 1.7%
Purity (%) ([1]; Two weeks, 2~8 °C, airtight): 97.5%
the amount of aromatic hydrocarbons (%) ([1]; Two weeks, 2~8 °C, airtight): 1.5%
Purity (%) ([1]; Two weeks, 25 °C, airtight): 97.5%
the amount of aromatic hydrocarbons (%) ([1]; Two weeks, 25 °C, airtight): 1.5%
Purity (%) ([1]; Two weeks, 60 °C, airtight): 97.1%
the amount of aromatic hydrocarbons (%) ([1]; Two weeks, 60 °C, airtight): 1.8%
solubility at 24 h ([2]; acetate buffer solution pH 4.5, 25°C): 0.0586 mg/mL
pH of the solution after solvation saturation has been reached [2, 5]: 2.0
solubility at 24 h ([2]; hydrochloric acid buffer solution pH 1.2, 25°C): 0.0225 mg/mL
pH of the solution after solvation saturation has been reached [2, 6]: 1.2
solubility at 24 h ([2]; phosphate buffer solution pH 6.8, 25°C): 0.0216 mg/mL
pH of the solution after solvation saturation has been reached [2, 7]: 2.0
solubility at 24 h ([2]; water, 25°C): 0.0647 mg/mL
pH of the solution after solvation saturation has been reached ([2]; water, 25°C, 24 h): 1.5
Compound: Cc1c2c(c(=O)n3c1C(=O)NC31CCCCC1)Nc1cc(NC(=O)C3CC3)ncc1C2 [Sulfate polymorph A]
